Laboratory results: patent US20240238459A1, “Granzyme-Activatable Membrane-Interacting Peptides and Methods of Use” (priority 2021, published 2024)
Peptide text beside a SMILES is read from it. * marks the point of attachment. DOTA = O=C(O)CN1CCN(CC(=O)O)CCN(CC(=O)*)CCN(CC(=O)O)CC1; Ahx = NCCCCCC(=O)O

Tests used:
virus = experiment: PET and biodistribution in viral pneumonia model; conditions: biodistribution; including spleen, liver and blood pool
Source text: In collaboration with the Looney lab at UCSF, mice received an intranasal instillation of virus or sham, and were imaged with ^64Cu-GRIP B at 10 days post infection (the time point at which peak recruitment of T cells to the lungs occurs).

RAJI tumors = experiment: PET/CT in mice bearing RAJI xenografts given anti-CD19 CAR T cells; assay type: in vivo, mouse
Protocol: Mice bearing subcutaneous RAJI xenografts and administered anti-CD19 CAR T cells were imaged using ^64Cu-GRIP B PET/CT. Peripheral blood mononuclear cells were obtained from normal blood donor leukoreduction filters (Vitalant Blood Services). CD4+ and CD8+ T-cells were isolated via magnetic bead selection, activated with anti-CD3/CD28 beads, lentivirally transduced with a validated anti-CD19 CAR construct, and expanded in vitro with IL-2. In parallel, mice were injected with 1e6 Raji cells subcutaneously in the right flank. At tumor size of ˜400 mm3 5e6 CAR-expressing T-cells were implanted IV into each mouse. Mice received anti-CD19 CAR T cells or empty CAR Ts. After 6 days, the mice received ^64Cu-GRIP B (˜300 uCi/mouse) and were imaged from 0-4 hours post injection. The data depicted in FIG. 7 show images and region of interest analysis gathered at 4 hours post injection.
Additionally, mice bearing orthotopic RAJI xenografts and treated with activated CAR T cell based therapy were imaged using ^64Cu-GRIP B PET/CT. Raji cells (1e5) were administered orthotopically via tail vein injection to encourage seeding in abdominal tissues. This model was evaluated as subcutaneous Raji tumors are known to be intrinsically immunosuppressive.
Peripheral blood mononuclear cells were obtained from normal blood donor leukoreduction filters (Vitalant Blood Services). […]

EMT6 = experiment: Biodistribution in mice bearing EMT6 tumors treated with vehicle or CPI; assay type: in vivo, mouse; conditions: EMT6 cohort
Protocol: Next, the biodistribution of ^64Cu-GRIP B and ^64Cu-D-GRIP B was compared in mice bearing MC38 (mouse colorectal cancer) or EMT6 (mouse mammary breast carcinoma) xenografts. The mice were treated with vehicle or anti-PD1 and anti-CTLA4 CPIs following the schema used for the CT26 cohort.

secreted GZMB = molecular target: T1, secreted GZMB (Mus musculus, UniProt P04187); experiment: PET/CT and biodistribution after intratracheal LPS instillation; assay type: in vivo
T1 construct: from tissue; host or cells: live wild type mice; lungs and other organs after intratracheal LPS
T1 sequence (P04187 21-247): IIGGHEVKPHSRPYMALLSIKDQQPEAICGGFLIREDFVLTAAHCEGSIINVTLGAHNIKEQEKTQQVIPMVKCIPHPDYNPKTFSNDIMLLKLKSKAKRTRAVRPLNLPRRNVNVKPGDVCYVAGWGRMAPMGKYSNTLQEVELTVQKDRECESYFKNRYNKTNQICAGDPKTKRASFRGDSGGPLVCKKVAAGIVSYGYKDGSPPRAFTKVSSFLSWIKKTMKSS
Protocol: Though not well defined, non-cytotoxic functions for secreted GZMB have been proposed in several physiological processes, for example inflammation. To test if ^64Cu-GRIP B can localize potentially pathogenic reservoirs of secreted GZMB due to inflammation, ^64Cu-GRIP B PET/CT was performed on wild type mice that had received intratracheal instillations of lipopolysaccharide (LPS). PET/CT was performed four days after the instillation, a time point at which T cell recruitment to the lungs has occurred. […] Since 3 mg/kg LPS can trigger systemwide T cell activation, radiotracer uptake was examined in a larger panel of mouse organs. […] Remarkably, the systemwide impact on T cell activation due to the intratracheal instillation of LPS was also visually obvious by comparing maximum intensity projections between treatment arms (FIG. 6, panel E).

M. marinum = experiment: PET in M. marinum myositis model; assay type: in vivo, mouse
Source text: Neither M. marinum nor the L. monoctyogenes induced ^64Cu-GRIP B uptake in live bacterial abscesses compared to heat killed controls.

S. aureus = experiment: PET in S. aureus myositis model; assay type: in vivo, mouse
Source text: Granzyme B responses to other bacterial strains has also been tested. Live or heat killed S. aureus were implanted into the deltoids of mice to understand immune responses on PET. […] One possibility for the difference in response is that granzyme B is not uniformly employed to attack all pathogens, and the immune cells may customize their granzyme response based on the features of the pathogen.

recombinant human GZMB = recombinant human GZMB (Homo sapiens, UniProt P10144); experiment: Cleavage of GRIP B / ^64Cu-GRIP B by recombinant human GZMB (rad-HPLC); assay type: biochemical; conditions: incubation with recombinant human GZMB (400 nM per FIG. 2D legend); product comigrated with cold cleaved DOTA-peptide fragment
K. pneumoniae = experiment: PET in K. pneumoniae myositis model; assay type: in vivo, mouse
Source text: (§1) Performing additional myositis studies with other bacterial strains yielded unexpected and variable granzyme “responses” on PET. […] In both mouse cohorts, radiotracer uptake in the treated muscles was higher than in the normal muscle.

P. aeruginosa = experiment: PET in P. aeruginosa myositis model; assay type: in vivo, mouse
Source text: as §1

Sequence of recombinant human GZMB (P10144 21-247): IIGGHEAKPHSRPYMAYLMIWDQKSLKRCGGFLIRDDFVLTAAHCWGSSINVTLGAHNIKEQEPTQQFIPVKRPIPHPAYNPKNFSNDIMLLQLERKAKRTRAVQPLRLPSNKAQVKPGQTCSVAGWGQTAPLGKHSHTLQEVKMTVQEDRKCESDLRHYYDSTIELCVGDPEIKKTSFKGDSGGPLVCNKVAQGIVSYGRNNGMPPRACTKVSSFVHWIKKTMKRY

## CC[C@H](C)[C@H](NC(=O)[C@H](CCCCN)NC(=O)CNC(=O)[C@H](CC(C)C)NC(=O)[C@H](Cc1ccccc1)NC(=O)[C@H](CCCCN)NC(=O)[C@H](CO)NC(=O)[C@H](Cc1ccccc1)NC(=O)[C@H](Cc1c[nH]c2ccccc12)NC(=O)[C@H](CCC(N)=O)NC(=O)[C@@H](NC(=O)[C@H](Cc1ccccc1)NC(=O)CCCCCNC(=O)CN1CCN(CC(=O)O)CCN(CC(=O)O)CCN(CC(=O)O)CC1)C(C)C)C(=O)N[C@@H](CCC(=O)O)C(=O)N1CCC[C@H]1C(=O)N[C@@H](CC(=O)O)C(=O)N[C@H](C(=O)N[C@@H](CO)C(=O)N[C@@H](CCC(N)=O)C(=O)N[C@H](C(=O)N[C@@H](CCC(N)=O)C(=O)N[C@@H](CC(=O)O)C(=O)N1CCC[C@H]1C(=O)N[C@@H](CC(N)=O)C(=O)N[C@@H](CC(=O)O)C(=O)N[C@@H](CCC(N)=O)C(=O)N[C@@H](Cc1ccc(O)cc1)C(=O)N[C@@H](CCC(=O)O)C(=O)N1CCC[C@H]1C(=O)N[C@@H](Cc1ccccc1)C(=O)O)C(C)C)C(C)C [^64Cu-GRIP B, metal not drawn] ({DOTA-Ahx}-FVQWFSKFLGKIEPDVSQVQDPNDQYEPF-OH)
virus
  relative radiotracer uptake per organ, viral infection: higher radiotracer uptake in numerous tissues
RAJI tumors; orthotopic RAJI tumors in liver, CD19 CAR Ts, ROI and post mortem dosimetry
  uptake in tumor bearing livers: induce ^64Cu-GRIP B uptake in tumor bearing livers
RAJI tumors; subcutaneous and orthotopic RAJI, anti-CD19 CAR T vs empty CAR Ts, 4 hours post injection
  detection of granzyme B production from activated CAR T cells: can detect granzyme B production from activated CAR T cells
EMT6
  tumoral uptake after CPI compared to controls: significant increase
Secreted GZMB; co-localized with GZMB and CD3 staining
  autoradiography of the lungs, LPS treated: visually higher radiotracer binding
Secreted GZMB; either dose, including spleen and thymus
  ex vivo biodistribution, LPS treated versus vehicle mice: significantly higher in numerous tissues
Secreted GZMB; low (0.1 mg/kg) and high (3 mg/kg) doses of LPS, four days after instillation, ROI analysis
  radiotracer accumulation in the lungs, LPS compared to vehicle: significantly higher
M. marinum
  radiotracer uptake compared to normal muscle: significant increase
  uptake in live bacterial abscesses compared to heat killed controls: did not impact
S. aureus; S. aureus
  granzyme B response in live bacterial abscess compared to that of E. coli: more modest granzyme B response
  uptake in live bacterial abscess versus heat killed abscess: significantly higher
S. aureus; S. aureus deltoid implant
  time course of radiotracer uptake: rising rapidly from 0-6 hours post injection and plateauing from 6-24 hours
Recombinant human GZMB
  time to conversion to one radiolabeled product: ≤ 30 min
K. pneumoniae
  uptake in treated muscles versus normal muscle: higher
K. pneumoniae; deltoid muscles
  uptake in live bacterial infection versus contralateral heat killed bacteria: higher
P. aeruginosa
  uptake in treated muscles versus normal muscle: higher
P. aeruginosa; deltoid muscles
  uptake in live bacterial infection versus contralateral heat killed bacteria: higher
